Results: the supplement of paper PMC6045584
± gives the standard deviation of the averaged measurements.

These test systems were tested with CC(=O)O[C@H]1C(=O)[C@@]2(C)[C@H]([C@H](OC(=O)c3ccccc3)[C@]3(O)C[C@H](OC(=O)[C@H](O)[C@@H](NC(=O)c4ccccc4)c4ccccc4)C(C)=C1C3(C)C)[C@]1(OC(C)=O)CO[C@@H]1C[C@@H]2O [PACLITAXEL] (assay: surviving fraction relative to DMSO-only wells; higher = less growth inhibition). Settings: 1 nM; exposure time: 5 days.
Outline: (§1)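 Log-phase tumour cell lines were seeded at 250–500 cells per well in 384-well plates. After 24 hours they were exposed continuously for five days to inhibitors at 0.5, 1, 5, 10, 50, 100, 500 and 1000 nM. Viability was read by CellTiter-Glo luminescence after 10 minutes at room temperature, and surviving fraction is luminescence normalised to the median of DMSO-only wells. Each line was screened three times and kept only if replicate Pearson r >0.7 and median Z' >0.3.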

Test System | surviving fraction
SCC003 HEADNECK | 0.805 ± 0.075

Same assay, conditions: 5 nM; exposure time: 5 days

Test System | surviving fraction
HS578T BREAST | 0.127 ± 0.0038
JURKAT HAEMATOPOIETIC AND LYMPHOID TISSUE | 0.0347 ± 0.0021
MDAMB453 BREAST | 0.382 ± 0.051
S68 BREAST | 0.197 ± 0.045
SCC003 HEADNECK | 0.324 ± 0.037

Same assay, conditions: 10 nM; exposure time: 5 days

Test System | surviving fraction
HS578T BREAST | 0.108 ± 0.011
JURKAT HAEMATOPOIETIC AND LYMPHOID TISSUE | 0.03 ± 0.001
MDAMB453 BREAST | 0.303 ± 0.02
S68 BREAST | 0.134 ± 0.026
SCC003 HEADNECK | 0.27 ± 0.028

Same assay, conditions: 50 nM; exposure time: 5 days

Test System | surviving fraction
HS578T BREAST | 0.126 ± 0.013
JURKAT HAEMATOPOIETIC AND LYMPHOID TISSUE | 0.0297 ± 0.0011
MDAMB453 BREAST | 0.164 ± 0.014
S68 BREAST | 0.14 ± 0.0047
SCC003 HEADNECK | 0.192 ± 0.01

Same assay, conditions: 100 nM; exposure time: 5 days

Test System | surviving fraction
HS578T BREAST | 0.109 ± 0.0027
JURKAT HAEMATOPOIETIC AND LYMPHOID TISSUE | 0.0237 ± 0.00058
MDAMB453 BREAST | 0.145 ± 0.016
S68 BREAST | 0.144 ± 0.025
SCC003 HEADNECK | 0.196 ± 0.031

Same assay, conditions: 500 nM; exposure time: 5 days

Test System | surviving fraction
HS578T BREAST | 0.11 ± 0.01
JURKAT HAEMATOPOIETIC AND LYMPHOID TISSUE | 0.02 ± 0.001
MDAMB453 BREAST | 0.131 ± 0.015
S68 BREAST | 0.114 ± 0.0076
SCC003 HEADNECK | 0.179 ± 0.021

Same assay, conditions: 1000 nM; exposure time: 5 days

Test System | surviving fraction
HS578T BREAST | 0.101 ± 0.01
JURKAT HAEMATOPOIETIC AND LYMPHOID TISSUE | 0.0213 ± 0.00058
MDAMB453 BREAST | 0.134 ± 0.015
S68 BREAST | 0.122 ± 0.0061
SCC003 HEADNECK | 0.166 ± 0.018

The test systems below were run with CC(=O)c1c(C)c2cnc(Nc3ccc(N4CCNCC4)cn3)nc2n(C2CCCC2)c1=O in the same assay as above. Settings: 0.5 nM; exposure time: 5 days.
Outline: as §1

Test System | surviving fraction
HS578T BREAST | 0.985 ± 0.087
JURKAT HAEMATOPOIETIC AND LYMPHOID TISSUE | 1.09 ± 0.017
MDAMB453 BREAST | 1.05 ± 0.018
S68 BREAST | 0.75 ± 0.08
SCC003 HEADNECK | 1.12 ± 0.06

Same assay, conditions: 1 nM; exposure time: 5 days

Test System | surviving fraction
HS578T BREAST | 1.09 ± 0.068
JURKAT HAEMATOPOIETIC AND LYMPHOID TISSUE | 1.11 ± 0.021
MDAMB453 BREAST | 1.04 ± 0.043
S68 BREAST | 0.809 ± 0.025
SCC003 HEADNECK | 1.02 ± 0.064

Same assay, conditions: 5 nM; exposure time: 5 days

Test System | surviving fraction
HS578T BREAST | 1.02 ± 0.11
JURKAT HAEMATOPOIETIC AND LYMPHOID TISSUE | 1.0573 ± 0.00058
MDAMB453 BREAST | 1.07 ± 0.026
S68 BREAST | 1.13 ± 0.062
SCC003 HEADNECK | 1.11 ± 0.036

Same assay, conditions: 10 nM; exposure time: 5 days

Test System | surviving fraction
HS578T BREAST | 1.02 ± 0.048
JURKAT HAEMATOPOIETIC AND LYMPHOID TISSUE | 1.07 ± 0.033
MDAMB453 BREAST | 1.11 ± 0.044
S68 BREAST | 1.18 ± 0.033
